# Like-named read-outs stand apart in the source and are kept apart here.
# Assays:
# Rhinovirus 1b = assay: Human rhinovirus assay in HeLa-OHIO cells (CPE); type: cell-based; conditions: Enterovirus
# in vitro [1] = conditions: human
# RSV A2 [2] = assay: RSV inhibition by qRT-PCR in HEp-2 cells, RSV A2 strain; type: cell-based; conditions: human respiratory syncytial virus
# in vitro [3] = conditions: human; remark: listed apart in the source
# [4] = test system: influenza strain A/WSN/33 (H1N1); assay: Influenza assay in A549 cells (neuraminidase readout); type: cell-based; conditions: Influenza virus, 20h
# in vitro [5] = conditions: human; remark: listed apart in the source
# [6] = test system: Vesicular stomatitis virus; assay: microbe, parasite or virus in culture; type: cell-based; conditions: A549, 48 h
# RSV B1 = assay: RSV inhibition by qRT-PCR in HEp-2 cells, RSV B1 strain; type: cell-based; conditions: human respiratory syncytial virus, 120 h, 5 days, n = 3, read-out: EC50, inhibition of RNA replication of RSV B1
# RSV replicon = assay: RSV subgenomic replicon assay (luciferase); type: cell-based, Respiratory syncytial virus; conditions: human respiratory syncytial virus; RSV replicon
# Description: The RSV subgenomic replicon (Apath, Brooklyn, NY, USA) was used as previously described. The HeLa-derived cells containing the stable RSV replicon were cultured in DMEM containing 4500 mg/L D-glucose, L-glutamine, and 110 mg/L sodium pyruvate. The medium was further supplemented with 10% (v/v) FBS (Mediatech), 1% (v/v) penicillin/streptomycin (Mediatech), and 10 μg/mL of Blasticidin (BSD) (Invivogen). Cells were maintained at 37°C in a humidified 5% CO2 atmosphere. On the first day, 5000 RSV replicon cells per well were plated in a 96-well plate. On the following day, compounds to be tested were solubilized in 100% DMSO to 100 × the desired final testing concentration. Cells were incubated with compounds for 7 days at 37°C in a 5% CO2 atmosphere before measurement of the luciferase readout. Cell viability (CC50) was measured with a CellTiter-Glo cell proliferation assay (Promega).
# in vitro [7] = conditions: human; remark: listed apart in the source
# RSV A2 [8] = assay: Three-dimensional lung model, primary human tracheal/bronchial epithelial cells infected with RSV A2; type: cell-based; conditions: human respiratory syncytial virus, Epithelial cell
# [9] = test system: Parainfluenza virus type-3; assay: PIV-3 antiviral assay in A549 cells; type: cell-based, human PIV-3 C243 strain; conditions: 168 h, 7 days, qRT-PCR
# [10] = test system: RSV A and B clinical isolates; assay: microbe, parasite or virus in culture; type: cell-based; conditions: human respiratory syncytial virus
# HCV replicon = assay: microbe, parasite or virus in culture; type: cell-based; conditions: Hepatitis C virus
# [11] = molecular target: QUAD-mutant RSV polymerase (Human respiratory syncytial virus A, UniProt P28887, A789V/I796V/L795I/M628L); type: cell-based
# [12] = HEp-2, Isolate A1997-12-35, RSV A
# [13] = HEp-2, Isolate A1998-03-02, RSV A
# [14] = HEp-2, Isolate A1998-12-21, RSV A
# [15] = HEp-2, Isolate A2000-03-04, RSV A
# [16] = HEp-2, Isolate A2001-02-20, RSV A
# [17] = HEp-2, Isolate A2001-03-12, RSV A
# Chain of QUAD-mutant RSV polymerase (P28887 whole entry A789V/I796V/L795I/M628L, looked up): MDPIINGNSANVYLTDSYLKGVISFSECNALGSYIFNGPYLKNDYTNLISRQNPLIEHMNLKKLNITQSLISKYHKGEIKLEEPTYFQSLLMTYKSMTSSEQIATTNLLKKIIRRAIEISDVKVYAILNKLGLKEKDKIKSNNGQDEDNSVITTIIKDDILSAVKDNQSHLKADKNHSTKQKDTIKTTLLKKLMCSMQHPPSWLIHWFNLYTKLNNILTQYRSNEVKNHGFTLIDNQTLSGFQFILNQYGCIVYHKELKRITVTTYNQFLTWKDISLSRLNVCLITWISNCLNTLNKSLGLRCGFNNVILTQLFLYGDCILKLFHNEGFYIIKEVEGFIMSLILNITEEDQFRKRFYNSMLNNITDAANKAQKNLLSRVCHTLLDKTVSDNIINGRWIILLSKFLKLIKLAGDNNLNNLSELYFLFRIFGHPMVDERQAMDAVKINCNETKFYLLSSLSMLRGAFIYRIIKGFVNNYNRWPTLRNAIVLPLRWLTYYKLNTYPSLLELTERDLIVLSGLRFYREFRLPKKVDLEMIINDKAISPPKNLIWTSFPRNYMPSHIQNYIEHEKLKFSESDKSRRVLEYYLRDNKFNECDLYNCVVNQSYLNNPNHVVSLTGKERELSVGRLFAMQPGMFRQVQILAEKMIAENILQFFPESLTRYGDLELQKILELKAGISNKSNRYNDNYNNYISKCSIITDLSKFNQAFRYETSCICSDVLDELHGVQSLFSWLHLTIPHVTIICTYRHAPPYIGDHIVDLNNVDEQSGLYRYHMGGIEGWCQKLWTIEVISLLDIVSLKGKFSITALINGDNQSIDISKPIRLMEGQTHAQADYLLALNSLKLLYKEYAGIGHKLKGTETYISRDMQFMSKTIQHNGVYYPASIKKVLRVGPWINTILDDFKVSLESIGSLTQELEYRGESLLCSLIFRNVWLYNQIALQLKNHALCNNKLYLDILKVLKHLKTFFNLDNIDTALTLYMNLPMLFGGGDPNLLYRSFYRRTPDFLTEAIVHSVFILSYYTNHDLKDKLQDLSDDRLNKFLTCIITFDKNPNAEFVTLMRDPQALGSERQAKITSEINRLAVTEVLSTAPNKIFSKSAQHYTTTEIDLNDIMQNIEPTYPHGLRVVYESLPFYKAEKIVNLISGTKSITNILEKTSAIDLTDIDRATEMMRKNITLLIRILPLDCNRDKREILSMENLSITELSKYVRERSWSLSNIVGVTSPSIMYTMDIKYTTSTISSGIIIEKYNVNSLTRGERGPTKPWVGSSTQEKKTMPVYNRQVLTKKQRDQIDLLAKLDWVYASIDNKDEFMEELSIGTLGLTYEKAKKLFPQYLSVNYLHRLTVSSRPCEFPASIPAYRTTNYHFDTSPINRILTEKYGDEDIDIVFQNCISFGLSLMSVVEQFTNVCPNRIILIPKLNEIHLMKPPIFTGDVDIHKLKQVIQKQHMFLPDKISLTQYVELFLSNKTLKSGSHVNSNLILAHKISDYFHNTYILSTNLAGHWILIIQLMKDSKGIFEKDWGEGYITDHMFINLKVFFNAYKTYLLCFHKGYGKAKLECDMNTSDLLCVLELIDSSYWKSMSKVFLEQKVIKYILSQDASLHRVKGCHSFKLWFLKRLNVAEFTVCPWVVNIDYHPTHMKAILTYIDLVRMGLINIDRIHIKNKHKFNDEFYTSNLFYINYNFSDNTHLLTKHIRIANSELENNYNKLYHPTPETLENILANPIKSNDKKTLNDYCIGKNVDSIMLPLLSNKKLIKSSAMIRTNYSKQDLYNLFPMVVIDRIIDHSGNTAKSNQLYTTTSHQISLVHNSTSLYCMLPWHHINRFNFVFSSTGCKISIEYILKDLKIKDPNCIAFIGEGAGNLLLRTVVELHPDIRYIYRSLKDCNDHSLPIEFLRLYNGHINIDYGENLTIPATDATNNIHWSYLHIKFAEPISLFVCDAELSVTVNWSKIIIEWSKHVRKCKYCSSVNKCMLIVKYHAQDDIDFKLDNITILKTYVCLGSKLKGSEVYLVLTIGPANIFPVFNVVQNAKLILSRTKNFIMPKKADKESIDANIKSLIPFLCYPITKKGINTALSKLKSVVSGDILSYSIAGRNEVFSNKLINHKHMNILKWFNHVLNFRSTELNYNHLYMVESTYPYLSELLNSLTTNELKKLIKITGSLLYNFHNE
compound,measurement,setting,value
"Nc1ccn([C@@H]2O[C@@](CO)(CCl)[C@@H](O)[C@H]2F)c(=O)n1 [ALS-8112, 2'-fluoro-4'-chloromethyl (2'F-4'ClCH2) cytidine]",EC50,Rhinovirus 1b,> 100000 nM
same,CC50,in vitro [1],> 100000 nM
same,EC50,"RSV A2 [2]; 120 h, HEp-2 cells, 5 days, qRT-PCR, n = 3, read-out: EC50, inhibition of RNA replication of RSV A2",153 ± 76 nM
same,EC50,"RSV A2 [2]; HEp-2, read-out: EC50",150 nM
same,CC50,in vitro [3],> 100000 nM
same,EC50,[4],> 100000 nM
same,CC50,in vitro [5],> 100000 nM
same,EC50,[6],3400 nM
same,EC50,RSV B1,132 ± 55 nM
same,EC50,RSV replicon,150 nM
same,CC50,in vitro [7],> 100000 nM
same,EC50,"RSV A2 [8]; Disease: Asthma, read-out: EC50",730 nM
same,EC90,"RSV A2 [8]; Disease: Asthma, read-out: EC90",2700 nM
same,EC50,"RSV A2 [8]; donor one, Disease: None, read-out: EC50",370 nM
same,EC90,"RSV A2 [8]; donor one, Disease: None, read-out: EC90",2700 nM
same,EC50,"RSV A2 [8]; donor two, Disease: None, read-out: EC50",90 nM
same,EC90,"RSV A2 [8]; donor two, Disease: None, read-out: EC90",1300 nM
same,EC50,"RSV A2 [8]; range over human donor cells (n = 3), read-out: EC50, RSV RNA replication in donor cells",90 to 730 nM
same,EC90,"RSV A2 [8]; range over human donor cells (n = 3), read-out: EC90, RSV RNA replication in donor cells",1300 to 2700 nM
same,CC50,"A549; A549 cells, Influenza virus row",> 100000 nM
same,CC50,A549; human,> 100000 nM
same,EC50,[9],1300 nM
same,EC50,"[10]; HEp-2, Isolate 1144, RSV B",290 ± 20 nM
same,EC90,"[10]; HEp-2, Isolate 1144, RSV B",1470 ± 220 nM
same,EC50,"[10]; HEp-2, Isolate 1262, RSV B",110 ± 30 nM
same,EC90,"[10]; HEp-2, Isolate 1262, RSV B",2180 ± 270 nM
same,EC50,"[10]; HEp-2, Isolate 9320, RSV B",90 ± 30 nM
same,EC90,"[10]; HEp-2, Isolate 9320, RSV B",960 ± 160 nM
same,EC50,"[10]; HEp-2, Isolate 18537, RSV B",210 ± 60 nM
same,EC90,"[10]; HEp-2, Isolate 18537, RSV B",990 ± 220 nM
same,EC50,[10]; [12],180 ± 40 nM
same,EC90,[10]; [12],2460 ± 150 nM
same,EC50,[10]; [13],260 ± 60 nM
same,EC90,[10]; [13],2150 ± 270 nM
same,EC50,[10]; [14],90 ± 20 nM
same,EC90,[10]; [14],1110 ± 540 nM
same,EC50,[10]; [15],180 ± 20 nM
same,EC90,[10]; [15],2180 ± 240 nM
same,EC50,[10]; [16],100 ± 10 nM
same,EC90,[10]; [16],1100 ± 530 nM
same,EC50,[10]; [17],450 ± 70 nM
same,EC90,[10]; [17],2330 ± 350 nM
same,EC50,"[10]; HEp-2, Isolate Pep 121, RSV B",320 ± 70 nM
same,EC90,"[10]; HEp-2, Isolate Pep 121, RSV B",2070 ± 430 nM
same,EC50,"HCV replicon; Huh-7, HCV replicon, read-out: HCV EC50",> 100000 nM
same,EC50,"HCV replicon; Huh-7 replicon, read-out: EC50",> 100000 nM
same,"maximum inhibition, QUAD-mutant minigenome",[11],about 60%
